From patent publication EP0274444A2, “Solution inbuprofen complexes, compositions and processes for preparing the same” (priority 1987, dated 1988)

Assay: pH of the resulting solutions (pH meter with combination electrode)
Type: physicochemical
Conditions: Mole Ratio Cyclodextrin:Ibuprofen 0:1 (ibuprofen alone, saturated solution)
Procedure: The pH of each solution was measured using an Orion Model 701 pH meter with a combination electrode.

SMILES: CC(C)Cc1ccc(C(C)C(=O)O)cc1 (stereo not shown) [Ibuprofen, ibuprofen]
- pH: 4.56
